Reference: patent US8486930B2, “Salts” (Novartis AG, priority 2008, dated 2013)
Counter-ions that a name gives are not always drawn.

Experiments:
Format in all cases: physicochemical
[1] = Temperature stability, solid state, 1 week 80° C./75% relative humidity; details: for Decomposition products (%) / Discoloration / Change in XRPD: 1 week 80° C./75% relative humidity; for Change in XRPD: Bulk (XRPD)
Procedure: (§1) Crystalline forms A of the hydrochloride and tartrate salts of Compound I were prepared according to the methodology described in Examples 1 and 4. Stability against temperature and light were then measured as described below.
(§2) Temperature stability was tested by measuring decomposition and colour change caused by placing the samples in an airtight container for 1 week at 80° C. (in bulk form and as a 1% component in two mixtures) and in an identical container for 1 week at 80° C. and at a relative humidity of 75%. Where a change in XRPD was observed, the temperature of the phase transition was measured using differential scanning […] (DSC).

[2] = Hygroscopy by exposure to an atmosphere of 95% RH
Procedure: Crystalline forms A of the hydrochloride and tartrate salts of Compound I were prepared according to the methodology described in Examples 1 and 4.
The samples were tested for hygroscopy by exposure to an atmosphere of 95% RH.

[3] = Light stability, Xenon light approx. 1200 kLuxh; details: for Decomposition products (%): Bulk (HPLC); for Change in XRPD: Bulk (XRPD)
Procedure: as §1
Light stability was tested by measuring decomposition and colour change following exposure to the sample to 1200 kiloLuxhours from a Xenon light.

[4] = Temperature stability, solid state, 1 week 80° C., tight container; details: for resistance to decomposition at elevated temperatures: summary of Table 5
Procedure: as §1, §2

[5] = 1% in mixture of Lactose 200 mesh (78.5%), corn starch (20%), aerosil 200 (0.5%), magnesium stearate (1%)
[6] = 1% in mixture of Mannitol 60 (50%), avicel PH 101 (43%), crospovidone (5%), aerosil (1%), magnesium stearate (1%)
[7] = 1 week 80° C., tight container, 1% in mixture of Lactose 200 mesh (78.5%), corn starch (20%), aerosil 200 (0.5%), magnesium stearate (1%)
[8] = 1 week 80° C., tight container, 1% in mixture of Mannitol 60 (50%), avicel PH 101 (43%), crospovidone (5%), aerosil (1%), magnesium stearate (1%)
[9] = Solid state, 1 week 80° C., tight container, Bulk (HPLC)
[10] = Solid state, 1 week 80° C., tight container, Bulk (XRPD, DSC)

Decomposition products (%) [1, 5] [%] | Discoloration [1, 5] | Decomposition products (%) [1, 6] [%] | Discoloration [1, 6] | Discoloration ([1]; Solid state, Bulk) | Decomposition products (%) ([1]; Solid state, Bulk (HPLC)) | Change in XRPD ([1]; Solid state) | hygroscopy [2] | moisture uptake [2] [%] | Decomposition products (%) [3] [%] | Change in XRPD [3] | Decomposition products (%) [4, 7] [%] | Decomposition products (%) [4, 8] [%] | Decomposition products (%) [4, 9] [%] | Change in XRPD [4, 10] | Decomposition products (%) ([4]; Unstressed (1 week)) | resistance to decomposition at elevated temperatures [4] | SMILES | other results
95.2 | Strong | 95.8 | Strong | Strong | 91.5 | Melted glass | low hygroscopy | 0.61 | 1.1 | No change | 94.8 | 92.7 | 11.5 | No change | 1.1 | good resistance to decomposition | CCc1cc(/C(C)=N/OCc2ccc(C3CCCCC3)c(C(F)(F)F)c2)ccc1CN1CC(C(=O)O)C1 [Form A of hydrochloride salt, 1-(4-{1-[(E)-4-Cyclohexyl-3-trifluoromethyl-benzyloxyimino]-ethyl}-2-ethyl-benzyl)-azetidine-3-carboxylic acid] | Discoloration [4, 7]: Strong; Discoloration [4, 8]: Strong
70.9 | Strong | 93.2 | Medium | Strong | 18.0 | Melted glass | slightly hygroscopic | 2.49 | 0.8 | No change | 23.8 | 37.0 | 8.8 | Changed | 0.8 | good resistance to decomposition | CCc1cc(/C(C)=N/OCc2ccc(C3CCCCC3)c(C(F)(F)F)c2)ccc1CN1CC(C(=O)O)C1 [Form A of tartrate salt, 1-(4-{1-[(E)-4-Cyclohexyl-3-trifluoromethyl-benzyloxyimino]-ethyl}-2-ethyl-benzyl)-azetidine-3-carboxylic acid] | resistance to decomposition under conditions of high humidity and when mixed with representative pharmaceutical compositions ([1]; summary of Table 5, compared with the hydrochloride form): superior resistance to decomposition; temperature of the phase transition (DSC) ([4]; Solid state, 1 week 80° C., tight container, Bulk (XRPD, DSC), measured where XRPD changed): 136.3 °C
